Like-named read-outs stand apart in the source and are kept apart here.
Tests used:
[1] = target: T1, rat histamine H3 receptor (Rattus norvegicus, UniProt Q9QYN8); assay: Rat H3 radioligand binding ([3H]-N-alpha-methylhistamine, CHO-A3 cell membranes, SPA); conditions: binding constant as letter class
T1 construct: encoding the entire 445-amino-acid rat histamine H3 receptor; expressed in transfected cells
How it was run: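 Membranes from CHO-A3 cells stably expressing rat H3 (10 μg protein) incubated 4 h at room temperature in 50 mM Tris-HCl pH 7.4, 5 mM MgCl2, 0.1% BSA with ~1 nM [3H]-N-alpha-methylhistamine and compound (0.01 nM-30 μM). Bound radioligand read by scintillation proximity; nonspecific binding with 10 μM clobenpropit.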

human H3 receptor = target: T2, human H3 receptor (Homo sapiens, UniProt Q9Y5N1); assay: Human H3 radioligand binding ([3H]-N-alpha-methylhistamine, CHO cell membranes, SPA); conditions: binding constant as letter class
T2 construct: expressed in transfected cells
T2 sequence (Q9Y5N1 whole entry): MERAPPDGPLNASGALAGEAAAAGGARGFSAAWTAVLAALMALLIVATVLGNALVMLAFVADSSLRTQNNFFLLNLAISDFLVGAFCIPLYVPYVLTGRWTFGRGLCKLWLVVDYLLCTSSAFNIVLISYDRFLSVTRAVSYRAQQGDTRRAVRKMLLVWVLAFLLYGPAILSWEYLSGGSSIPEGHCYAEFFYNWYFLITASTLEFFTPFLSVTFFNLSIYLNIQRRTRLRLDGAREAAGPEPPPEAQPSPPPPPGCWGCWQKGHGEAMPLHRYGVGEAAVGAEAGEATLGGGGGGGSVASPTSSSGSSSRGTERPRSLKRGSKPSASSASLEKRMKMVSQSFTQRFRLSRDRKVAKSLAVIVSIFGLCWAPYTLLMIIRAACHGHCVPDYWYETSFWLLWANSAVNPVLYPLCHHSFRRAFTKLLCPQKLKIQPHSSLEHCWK
How it was run: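 CHO cell membranes expressing human H3 (10 μg protein/well) incubated 4 h at room temperature, in the dark, with ~1 nM [3H]-N-alpha-methylhistamine, compounds (0.01 nM-30 μM) and SPA beads in 50 mM Tris HCl pH 7.4, 5 mM MgCl2, 0.1% BSA. Non-specific binding defined with 10 μM clobenpropit.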

T1 sequence (Q9QYN8 whole entry): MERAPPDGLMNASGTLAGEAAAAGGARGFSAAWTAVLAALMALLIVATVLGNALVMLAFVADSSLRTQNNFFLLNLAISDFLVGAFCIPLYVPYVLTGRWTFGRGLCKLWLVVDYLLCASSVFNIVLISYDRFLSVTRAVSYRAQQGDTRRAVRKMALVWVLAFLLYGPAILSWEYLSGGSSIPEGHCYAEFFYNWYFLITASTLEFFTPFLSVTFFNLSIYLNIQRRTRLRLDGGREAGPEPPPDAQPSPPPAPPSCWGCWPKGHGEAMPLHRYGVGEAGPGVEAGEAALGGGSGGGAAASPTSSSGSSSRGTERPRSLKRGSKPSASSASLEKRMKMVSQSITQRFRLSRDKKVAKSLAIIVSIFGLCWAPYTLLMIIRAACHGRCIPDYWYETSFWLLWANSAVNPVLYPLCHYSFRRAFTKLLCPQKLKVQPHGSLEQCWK

| Ki ([1]; Table B, read-out: rat H3 Ki) | Ki (human H3 receptor; Table B) | Ki ([1]; Table A, read-out: Rat H3 Ki) | Ki (human H3 receptor; Table A) | Structure (SMILES) |
| --- | --- | --- | --- | --- |
| 0.1 to 100 nM | 0.1 to 100 nM | – | – | O=C1C2CC2C(c2ccc(OC3CCN(C4CCC4)CC3)cc2)=NN1CC(F)(F)F (centres unmarked) [Example 254, 5-[4-(1-Cyclobutyl-piperidin-4-yloxy)-phenyl]-3-(2,2,2-trifluoro-ethyl)-3,4-diaza-bicyclo[4.1.0]hept-4-en-2-one] |
| > 1000 nM | 501 to 1000 nM | – | – | O=C1CCC(c2ccc(O[C@@H]3CCN(C4CCCC4)C3)cc2)=NN1 [Example 162, 6-[4-((R)-1-Cyclopentyl-pyrrolidin-3-yloxy)-phenyl]-4,5-dihydro-2H-pyridazin-3-one] |
| – | – | 0.1 to 100 nM | 0.1 to 100 nM | C[C@@H]1CCCN1CCCOc1ccc(-c2ccc(=O)n(C)n2)cc1F [Example 7, 6-{3-Fluoro-4-[3-((R)-2-methyl-pyrrolidin-1-yl)-propoxy]-phenyl}-2-methyl-2H-pyridazin-3-one] |
| 0.1 to 100 nM | 0.1 to 100 nM | – | – | CCN1N=C(c2ccc(OC3CCN(C4CCC4)CC3)cc2)C2CC2C1=O (centres unmarked) [Example 250, 5-[4-(1-Cyclobutyl-piperidin-4-yloxy)-phenyl]-3-ethyl-3,4-diaza-bicyclo[4.1.0]hept-4-en-2-one] |
| 0.1 to 100 nM | 0.1 to 100 nM | – | – | COCn1ncc(-c2ccc(OCCCN3CCCCC3)cc2C)cc1=O [Example 232, 2-Methoxymethyl-5-[2-methyl-4-(3-piperidin-1-yl-propoxy)-phenyl]-2H-pyridazin-3-one] |
| 0.1 to 100 nM | 0.1 to 100 nM | – | – | C[C@@H]1CCCN1CCCOc1ccc(-c2ccc(=O)[nH]n2)cc1F [Example 119, 6-{3-Fluoro-4-[3-((R)-2-methyl-pyrrolidin-1-yl)-propoxy]-phenyl}-2H-pyridazin-3-one] |
| 0.1 to 100 nM | 0.1 to 100 nM | – | – | Cc1cc(-c2ccc(OCCCN3CCCCC3)cc2)n[nH]c1=O [Example 123, 4-Methyl-6-[4-(3-piperidin-1-yl-propoxy)-phenyl]-2H-pyridazin-3-one] |
| – | – | 0.1 to 100 nM | 0.1 to 100 nM | CC(C)N1N=C(c2ccc(OCCCN3CCCCC3)cc2)CCC1=O [Example 4, 2-Isopropy1-6-[4-(3-piperidin-1-yl-propoxy)-phenyl]-4,5-dihydro-2H-pyridazin-3-one] |
| 0.1 to 100 nM | 0.1 to 100 nM | – | – | Cn1nc(-c2ccc(OCCCN3CCC[C@H]3CO)cc2)c2c(c1=O)CCCC2 [Example 124, 4-{4-[3-((S)-2-Hydroxymethyl-pyrrolidin-1-yl)-propoxy]-phenyl}-2-methyl-5,6,7,8-tetrahydro-2H-phthalazin-1-one] |
| – | – | 0.1 to 100 nM | 0.1 to 100 nM | C[C@@H]1CCCN1CCCOc1ccc(-c2ccc(=O)n(C)n2)cc1 [Example 1, 2-Methyl-6-{4-[3-((R)-2-methyl-pyrrolidin-1-yl)-propoxy]-phenyl}-2H-pyridazin-3-one] |
| 101 to 500 nM | 0.1 to 100 nM | – | – | O=c1ccc(-c2ccc(OCCCN3CCCCC3)c(F)c2)n[nH]1 [Example 120, 6-[3-Fluoro-4-(3-piperidin-1-yl-propoxy)-phenyl]-2H-pyridazin-3-one] |
| 0.1 to 100 nM | 0.1 to 100 nM | – | – | O=c1ccc(-c2ccc(OC3CCN(C4CCC4)CC3)nc2)nn1-c1ccccn1 [Example 149, 6-[6-(1-Cyclobutyl-piperidin-4-yloxy)-pyridin-3-yl]-2-pyridin-2-yl-2H-pyridazin-3-one] |
| – | – | > 1000 nM | 101 to 500 nM | Cn1nc(-c2ccc(OCC3CCN(C4CCC4)CC3)cc2)ccc1=O [Example 67, 6-[4-(1-Cyclobutyl-piperidin-4-ylmethoxy)-phenyl]-2-methyl-2H-pyridazin-3-one] |
| 0.1 to 100 nM | 0.1 to 100 nM | 0.1 to 100 nM | 0.1 to 100 nM | C[C@@H]1CCCN1CCCOc1ccc(-c2ccc(=O)n(-c3ccccc3)n2)cc1F [Example 81, 6-{3-Fluoro-4-[3-((R)-2-methyl-pyrrolidin-1-yl)-propoxy]-phenyl}-2-phenyl-2H-pyridazin-3-one] |
| 0.1 to 100 nM | 0.1 to 100 nM | – | – | O=c1ccc(-c2ccc(OC3CCN(C4CCC4)CC3)cc2)nn1-c1ccccn1 [Example 157] |
| 0.1 to 100 nM | 0.1 to 100 nM | – | – | Cc1n[nH]c(=O)cc1-c1ccc(OCCCN2CCCCC2)cc1 [Example 89, 6-Methyl-5-[4-(3-piperidin-1-yl-propoxy)-phenyl]-2H-pyridazin-3-one] |
| – | – | > 1000 nM | 101 to 500 nM | CCCn1nc(-c2ccc(OCCCN3CCC[C@H]3CN3CCCC3)cc2)c2sccc2c1=O [Example 36, 5-Propyl-7-{4-[3-((S)-2-pyrrolidin-1-ylmethyl-pyrrolidin-1-yl)-propoxy]-phenyl}-5H-thieno[2,3-d]pyridazin-4-one] |
| – | – | 0.1 to 100 nM | 0.1 to 100 nM | C[C@@H]1CCCN1CCCOc1ccc(-c2ccc(=O)n(Cc3ccccc3)n2)cc1 [Example 18, 2-Benzyl-6-{4-[3-((R)-2-methyl-pyrrolidin-1-yl)-propoxy]-phenyl}-2H-pyridazin-3-one] |
| 0.1 to 100 nM | 0.1 to 100 nM | – | – | CN1N=C(c2ccc(OC3CCN(C4CCC4)CC3)cc2)C2CC2C1=O (centres unmarked) [Example 252, 5-[4-(1-Cyclobutyl-piperidin-4-yloxy)-phenyl]-3-methyl-3,4-diaza-bicyclo[4.1.0]hept-4-en-2-one] |
| 0.1 to 100 nM | 0.1 to 100 nM | – | – | C[C@@H]1CCCN1CCCOc1ccc(C2=NNC(=O)C3CC23)cc1 (mixture of isomers) [Example 243, 5-{4-[3-((R)-2-Methyl-pyrrolidin-1-yl)-propoxy]-phenyl}-3,4-diaza-bicyclo[4.1.0]hept-4-en-2-one] |
| – | – | 101 to 500 nM | 0.1 to 100 nM | Cc1cc(-c2ccc(OCCCN3CCCCC3)cc2)nn(Cc2ccccc2)c1=O [Example 44, 2-Benzyl-4-methyl-6-[4-(3-piperidin-1-yl-propoxy)-phenyl]-2H-pyridazin-3-one] |
| 0.1 to 100 nM | 0.1 to 100 nM | – | – | CC1CC(=O)NN=C1c1ccc(OCCCN2CCCCC2)cc1 (racemic) [Example 197, 5-Methyl-6-[4-(3-piperidin-1-yl-propoxy)-phenyl]-4,5-dihydro-2H-pyridazin-3-one] |
| 0.1 to 100 nM | 0.1 to 100 nM | – | – | Cc1nn(C)c(=O)cc1-c1ccc(OCCCN2CCC[C@H]2C)cc1 [Example 86, 2,6-Dimethyl-5-{4-[3-((R)-2-methyl-pyrrolidin-1-yl)-propoxy]-phenyl}-2H-pyridazin-3-one] |
| – | – | > 1000 nM | > 1000 nM | Cn1nc(-c2ccc(OCC3CCNCC3)cc2)c2ccccc2c1=O [Example 63, 2-Methyl-4-[4-(piperidin-4-ylmethoxy)-phenyl]-2H-phthalazin-1-one] |
| – | – | 501 to 1000 nM | 0.1 to 100 nM | CC(C)n1nc(-c2ccc(OCCCN3CCC(N4CCCC4)CC3)cc2)c2sccc2c1=O [Example 30, 5-Isopropyl-7-{4-[3-(4-pyrrolidin-1-yl-piperidin-1-yl)-propoxy]-phenyl}-5H-thieno[2,3-d]pyridazin-4-one] |
| 0.1 to 100 nM | 0.1 to 100 nM | – | – | O=c1cc(-c2ccc(OCCCN3CCCCCC3)cc2)cnn1-c1ccccn1 [Example 96, 5-[4-(3-Azepan-1-yl-propoxy)-phenyl]-2-pyridin-2-yl-2H-pyridazin-3-one] |
| > 1000 nM | > 1000 nM | – | – | O=C1CC(c2ccccn2)C(c2ccc(OC3CCNCC3)cc2)=NN1 (centres unmarked) [Example 113, 6-[4-(Piperidin-4-yloxy)-phenyl]-5-pyridin-2-yl-4,5-dihydro-2H-pyridazin-3-one] |

From patent US8586588B2, “Aryl pyridazinone derivatives and their use as H3 receptor ligands” (Cephalon, Inc., priority 2006, dated 2013)
